In ChEMBL document CHEMBL4130476, “4-Alkyliden-azetidinones modified with plant derived polyphenols: Antibacterial and antioxidant properties” (2017):
Converted amounts (≈) assume the structure as drawn.

Key:
Format in all cases: functional
Staphylococcus aureus [1] = assay: Antibacterial activity against methicillin-resistant Staphylococcus aureus 44674 assessed as inhibition of bacterial growth incubated for 18 to 24 hrs by broth microdilution method
Staphylococcus aureus [2] = assay: Antibacterial activity against methicillin-susceptible Staphylococcus aureus 39249 assessed as inhibition of bacterial growth incubated for 18 to 24 hrs by broth microdilution method
Staphylococcus aureus [3] = assay: Antibacterial activity against methicillin-susceptible Staphylococcus aureus 69856 assessed as inhibition of bacterial growth incubated for 18 to 24 hrs by broth microdilution method
Staphylococcus hominis = assay: Antibacterial activity against linezolid and methicillin-resistant Staphylococcus hominis alpha26 assessed as inhibition of bacterial growth incubated for 18 to 24 hrs by broth microdilution method
Enterococcus faecalis [4] = assay: Antibacterial activity against linezolid and […] 4150 assessed as inhibition of bacterial growth incubated for 18 to 24 hrs by broth microdilution method
[5] = system: Staphylococcus epidermidis; assay: Antibacterial activity against methicillin-susceptible Staphylococcus epidermidis 3226 assessed as inhibition of bacterial growth incubated for 18 to 24 hrs by broth microdilution method
Enterococcus faecium = assay: Antibacterial activity against linezolid and vancomycin-resistant Enterococcus faecium VRE2 assessed as inhibition of bacterial growth incubated for 18 to 24 hrs by broth microdilution method
[6] = Antioxidant activity assessed as ABTS scavenging activity by measuring mmol of Trolox equivalent antioxidant capacity incubated for 6 mins
Enterococcus faecalis [7] = assay: Antibacterial activity against Enterococcus faecalis ATCC 29212 assessed as inhibition of bacterial growth incubated for 18 to 24 hrs by broth microdilution method
[8] = system: Staphylococcus epidermidis; assay: Antibacterial activity against linezolid and methicillin-resistant Staphylococcus epidermidis G1027 assessed as inhibition of bacterial growth incubated for 18 to 24 hrs by broth microdilution method
[9] = Antioxidant activity assessed as DPPH scavenging activity by measuring mmol of Trolox equivalent antioxidant capacity incubated for 40 mins
Staphylococcus aureus [10] = assay: Antibacterial activity against Staphylococcus aureus ATCC 29213 assessed as inhibition of bacterial growth incubated for 18 to 24 hrs by broth microdilution method
Staphylococcus aureus [11] = assay: Antibacterial activity against linezolid and methicillin-resistant Staphylococcus aureus SAU-1 assessed as inhibition of bacterial growth incubated for 18 to 24 hrs by broth microdilution method

Structure (SMILES)	MIC (Staphylococcus aureus [1]) [µg/mL]	MIC (Staphylococcus aureus [2]) [µg/mL]	MIC (Staphylococcus aureus [3]) [µg/mL]	MIC (Staphylococcus hominis) [µg/mL]	MIC (Enterococcus faecalis [4]) [µg/mL]	MIC [5] [µg/mL]	MIC (Enterococcus faecium) [µg/mL]	Activity [6] [mmolequiv]	MIC (Enterococcus faecalis [7]) [µg/mL]	MIC [8] [µg/mL]	Activity [9] [mmolequiv]	MIC (Staphylococcus aureus [10]) [µg/mL]	MIC (Staphylococcus aureus [11]) [µg/mL]
C[C@@H](OC(=O)c1ccc(O)cc1)[C@H]1C(=O)N/C1=C\C(=O)OCc1ccccc1	> 128	> 128	> 128	16 (≈ 42 µM)	> 128	> 128	> 128	0.01	> 128	> 128	0.007	2 (≈ 5.24 µM)	2 (≈ 5.24 µM)
COc1cc(/C=C/C(=O)O[C@H](C)[C@H]2C(=O)N/C2=C\C(=O)OCc2ccccc2)cc(OC)c1O	8 (≈ 17.1 µM)	8 (≈ 17.1 µM)	> 128	4 (≈ 8.56 µM)	> 128	> 128	> 128	0.232	> 128	> 128	0.191	> 128	8 (≈ 17.1 µM)
COc1cc(/C=C/C(=O)O[C@H](C)[C@H]2C(=O)N/C2=C\C(=O)OCc2ccccc2)ccc1O	4 (≈ 9.14 µM)	8 (≈ 18.3 µM)	8 (≈ 18.3 µM)	4 (≈ 9.14 µM)	8 (≈ 18.3 µM)	8 (≈ 18.3 µM)	> 128	0.284	> 128	4 (≈ 9.14 µM)	0.142	4 (≈ 9.14 µM)	4 (≈ 9.14 µM)
C[C@@H](OC(=O)c1cccc2c1OCO2)[C@H]1C(=O)N/C1=C\C(=O)OCc1ccccc1	> 128	> 128	> 128	8 (≈ 19.5 µM)	> 128	> 128	> 128		> 128	> 128		16 (≈ 39.1 µM)	2 (≈ 4.89 µM)
CO/N=C(\C(=O)N[C@@H]1C(=O)N2C(C(=O)O)=C(COC(N)=O)CS[C@H]12)c1ccco1 [CEFUROXIME]	8 (≈ 18.9 µM)	2 (≈ 4.71 µM)	1 (≈ 2.36 µM)	8 (≈ 18.9 µM)	> 128	0.5 (≈ 1.18 µM)	> 128		> 128	32 (≈ 75.4 µM)		2 (≈ 4.71 µM)	> 128
CN[C@H](CC(C)C)C(=O)N[C@H]1C(=O)N[C@@H](CC(N)=O)C(=O)N[C@H]2C(=O)N[C@H]3C(=O)N[C@H](C(=O)N[C@H](C(=O)O)c4cc(O)cc(O)c4-c4cc3ccc4O)[C@H](O)c3ccc(c(Cl)c3)Oc3cc2cc(c3O[C@@H]2O[C@H](CO)[C@@H](O)[C@H](O)[C@H]2O[C@H]2C[C@](C)(N)[C@H](O)[C@H](C)O2)Oc2ccc(cc2Cl)[C@H]1O [VANCOMYCIN]				1 (≈ 0.69 µM)	0.25 (≈ 0.173 µM)		> 128		2 (≈ 1.38 µM)				
